Experimental findings from PMC11396514, “Synthesis and Biological Evaluation of Novel Piperidine-3-Carboxamide Derivatives as Anti-Osteoporosis Agents Targeting Cathepsin K” (Molecules, 2024) are described below.

For series [1], the system named is OVX-induced-osteoporosis mice. Kind of series: OVX-induced osteoporosis mouse model, BMD of the thighbone. The series is classed as in vivo. The conditions noted are these: 16 weeks; for BMD compared to the untreated model group: H-9 90, 30 and 10 mg/kg, raloxifene 5 mg/kg, intragastric. Here is the method:
To evaluate the anti-osteoporosis therapeutic potential of compound H-9, an ovariectomized (OVX)-induced osteoporosis mouse model was established and employed. The study included six experimental groups: a blank control group, an untreated model group, three H-9 treatment groups (doses of 90 mg/kg, 30 mg/kg, and 10 mg/kg), and a positive control group treated with raloxifene (5 mg/kg), with 10 mice in each group.
The mice were randomly divided into 2 groups: a blank control group (n = 10) and a model group (n = 50). After a 7-day acclimation period, the model group mice received a bilateral ovariectomy. Subsequently, the model group was further divided into 5 subgroups (n = 10): an untreated model group, three test groups, and a raloxifene group. Ten days after surgery, the three test groups were administered compound H-9 via intragastric administration at doses of 90 mg/kg, 30 mg/kg, and 10 mg/kg, respectively. Raloxifene was given to the positive control group at a dose of 5 mg/kg. All drugs were administered for 16 weeks, with a 1-day break following every 6 consecutive days of administration. The blank control and untreated model groups received an equivalent volume of saline. At the end of the administration period, the mice were anesthetized with sodium pentobarbital, and the BMD of the thighbone was measured using an OSTEOCORE 3 Bone Density Meter (Thule, Marseille, France).

In series [2] the target is T1, Recombinant human Cat K (Homo sapiens, UniProt P43235).
T1 sequence (P43235 115-329): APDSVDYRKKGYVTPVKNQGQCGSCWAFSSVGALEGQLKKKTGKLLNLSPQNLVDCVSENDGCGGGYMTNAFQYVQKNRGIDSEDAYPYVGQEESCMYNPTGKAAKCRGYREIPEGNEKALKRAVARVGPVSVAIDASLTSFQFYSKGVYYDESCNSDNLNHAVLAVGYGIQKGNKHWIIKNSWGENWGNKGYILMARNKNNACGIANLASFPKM
In words: In vitro enzymatic assay of Cat K inhibition (Z-Phe-Arg-AMC fluorescence). In kind it is biochemical. The conditions noted are these: pH 6.0, substrate Z-Phe-Arg-AMC, read-out: Cat K IC50 (µM) ± SD. Here is the method: Compounds were tested at eight concentrations (100–0.001 µM). Recombinant human Cat K (5.5 ng/mL) in reaction buffer (50 µL) containing sodium acetate (50 mM), EDTA (2.5 mM), and DTT (1 mM) was added to a 96-well plate containing the test compounds at pH 6.0. The plate was incubated at 37 °C for 15 min, and the fluorescence (F1) was measured at 355 nm excitation and 460 nm emission using a microplate reader (Wallac 1420 Victor2, Norwalk, CA, USA). Subsequently, Z-Phe-Arg-AMC (20 µL, 10 µM) was added, and the plate was incubated at 37 °C for 1 h. Fluorescence (F2) was measured again at 355 nm excitation and 460 nm emission. The inhibition rate was calculated using the formula: inhibition (%) = [control (F2 − F1) − sample (F2–F1)]/[control (F2 − F1) − blank (F2 − F1)] × 100%. IC50 values were calculated using the SPSS 17.0 software.

The test system of series [3] is RANKL-induced RAW264.7 cells. Kind of series: In vitro anti-bone resorption assay: CTX-I released into culture medium (ELISA), cells on bovine femur slices. In kind it is cell-based. An excerpt:
(§1) Type I collagen, the predominant structural protein in bone, constitutes approximately 90% of the bone matrix protein [22]. During bone renewal, type I collagen is degraded, releasing short peptide fragments such as the C-terminal peptide of type I collagen (CTX-I) into the bloodstream. The concentration of CTX-I in the patient’s blood serves as a crucial biomarker for evaluating the degree of osteoporosis. In vitro, bone resorption can be assessed by measuring the concentration of CTX-I using a model in which osteoclasts are cultured on bone slices. In this experiment, the in vitro anti-bone resorption activities of the test compounds were evaluated in RANKL-induced RAW264.7 cells. This evaluation was based on the concentration of CTX-I released into the cell culture medium due to bone degradation, as well as the area of bone resorption pits formed on bone slices.
(§2) RAW264.7 cells, obtained from the cell bank of the Chinese Academy of Medical Sciences, were seeded into 96-well plates at a density of 1 × 10^5 cells per well with bovine femur slices. To induce cell differentiation, 50 ng mL^−1 of RANKL was added to the RAW264.7 cells. The cells were cultured for 5 days at 37 °C under 5% CO2 with the test compounds at a concentration of 1 µM. The culture supernatant was collected to measure the CTX-I concentration using ELISA. The bone slices were fixed with 2.5% glutaraldehyde for 7 min, then washed 3 times with 0.25 mol/L ammonium hydroxide, dehydrated using a series of ethanol solutions (40%, 75%, 80%, 95%, and anhydrous ethanol), and dried naturally. After staining with 1% toluidine blue solution at room temperature for 3–4 min, the bone slices were rinsed with distilled water and analyzed using an optical microscope. Bone resorption areas were calculated using image analysis software (iBright CL1500, Redmond, WA, USA).
A general note: In an ELISA, binding on a coated surface is turned into a signal by an enzyme label.

Series [4] has as its system RANKL-induced RAW264.7 cells. In words: In vitro anti-bone resorption assay: area of bone resorption pits on bone slices (toluidine blue). In kind it is cell-based. Conditions: compound 1 µM, 5 days, compared with MIV-711 / model group.
Text: as §1, §2

The subject of series [5] is Cat K levels in RAW264.7 cells. In words: Western blotting assay of Cat K expression. In kind it is cell-based. The conditions noted are these: H-9 at 0, 1 and 5 µM for five days, RANKL-treated RAW264.7 cells. Here is the method: To further verify the anti-bone resorption mechanism of the target compounds, a western blotting assay was carried out to assess the effect of compound H-9 on the expression of Cat K. […] RAW264.7 cells were treated with compound H-9 at concentrations of 0, 1, and 5 µM for five days, followed by cell lysis. Proteins were extracted and analyzed for Cat K levels. […] These western blotting results, combined with enzyme inhibitory activities and molecular docking analyses, confirm that the anti-bone resorption activity of compound H-9 is mediated through the inhibition of Cat K activity.
RAW264.7 cells were seeded into 12-well plates at a density of 1 × 10^5 cells per well, and 50 ng mL^−1 of RANKL was added to induce cell differentiation. The cells were cultured at 37 °C under 5% CO2 and treated with compound H-9 (0, 1, and 5 µM) for 5 days. The cells were then harvested, lysed, and centrifuged at 12,000× g for 10 min. The supernatants were collected and mixed with loading buffer, then heated to 100 °C. Total protein concentrations were determined using a Bio-Rad protein assay ([…], Hercules, CA, USA). The samples were subjected to SDS-PAGE and transferred to a PVDF membrane. The membrane was blocked with 5% non-fat milk, and then, incubated overnight at 4 °C with primary antibody against Cat K and GAPDH. […]
On the technique in general: A western blot detects proteins with antibodies after separation by electrophoresis.

Series [6] in a line: Acute toxicity testing, oral. The series is classed as in vivo, mice. Conditions: mouse, in vivo, 300 mg/kg/day for 7 days, mice. On the procedure:
(§3) Initially, acute toxicity testing was carried out to establish appropriate dosages. Compound H-9 was administered orally at a dose of 300 mg/kg/day for 7 days.

Series [7] has as its system mice. Kind of series: Acute toxicity testing, oral. Conditions: 300 mg/kg/day for 7 days. The series is classed as in vivo. On the procedure: as §3

“Also recorded” adds a separate entry of the source.

Broadly, the IC50 is the concentration at which inhibition is half-maximal. Usually LD50 stands for the dose at which mortality reaches 50%. Low readings indicate greater toxicity, high ones lower toxicity.

Consider `O=C(c1ccc(OCCN2CCCCC2)cc1)c1c(-c2ccc(O)cc2)sc2cc(O)ccc12` [raloxifene, reference compound], for which the “BMD compared to the untreated model group” value in series [1] is “significant increases in BMD”.

Consider `COc1ccc(S(=O)(=O)N2CCC[C@@H](C(=O)NCc3ccc(Cl)cc3)C2)cc1` [Compound H-9, (R)-N-(4-chlorobenzyl)-1-((4-methoxyphenyl)sulfonyl)piperidine-3-carboxamide], for which, in series [2], the IC50 amounted to 0.08 ± 0.03 µM. In addition, in series [3] (compound 1 µM, 5 days, ELISA), the “CTX-I concentration in the cell culture medium” value was determined as 20.46 ± 3.67 nM. Further, the “CTX-I concentration compared to the model group (in words)” value in series [3] (compound 1 µM, 5 days, vs untreated model group) is “reduced CTX-I concentration”. Moreover, the “Anti-bone resorption effects in vitro compared to MIV-711 (summary statement)” value in series [3] (in vitro, RAW264.7 cells) is listed as “comparable to those of MIV-711; also recorded: comparable to that of MIV-711”. Besides, the “Anti-bone resorption activity by area of bone resorption pits (in words)” value in series [4] is “comparable to that of MIV-711”. Moreover, the “Effect on Cat K levels (western blot)” value in series [5] is reported as “dose-dependent decrease in Cat K levels; also recorded: effectively downregulated cathepsin K expression; also recorded: decreased Cat K levels”. This molecule came in with an LD50 at 7 days in series [6] of over 300 mg/kg. For the same molecule, the Mouse deaths result in series [7] is “No mouse deaths”. Besides, the “BMD compared to the untreated model group” value in series [1] is “increased the bone mineral density; also recorded: significant increases in BMD”. Further, the “Efficacy on BMD compared to the positive control” value in series [1] (H-9 at 90 mg/kg vs raloxifene 5 mg/kg) is recorded as “comparable to that of the positive control”.
